In brackets after ≈: the same amount, converted by molar mass.
Key:
Plasmodium falciparum [1] = assay: In vitro antimalarial activity against drug-resistant Plasmodium falciparum W-2; type: functional, organism-based
Plasmodium falciparum [2] = assay: In vitro antimalarial activity against drug-resistant Plasmodium falciparum D6; type: functional, organism-based

SMILES	IC50 (Plasmodium falciparum [1]) [ng/mL]	IC50 (Plasmodium falciparum [2]) [ng/mL]
C=CC[C@H]1O[C@@H]2O[C@@]3(C)CC[C@H]4[C@H](C)CC[C@@H]([C@H]1C)[C@@]24OO3	0.59 (≈ 1.91 nM)	1.07 (≈ 3.47 nM)
CC[C@H]1O[C@@H]2O[C@@]3(C)CC[C@H]4[C@H](C)CC[C@@H]([C@H]1C)[C@@]24OO3	0.29 (≈ 0.978 nM)	1.09 (≈ 3.68 nM)
CCC[C@H]1O[C@@H]2O[C@@]3(C)CC[C@H]4[C@H](C)CC[C@@H]([C@H]1C)[C@@]24OO3	0.16 (≈ 0.515 nM)	0.41 (≈ 1.32 nM)
C[C@H]1[C@@H](CCO)O[C@@H]2OC3(C)CC[C@H]4[C@H](C)CC[C@@H]1[C@@]24OO3 (single isomer, unassigned)	0.59 (≈ 1.89 nM)	2.04 (≈ 6.53 nM)
C[C@@H]1CC[C@H]2[C@@H](C)CO[C@@H]3OC4(C)CC[C@@H]1[C@]32OO4 (single isomer, unassigned) [DEOXOARTEMISININ]	0.48 (≈ 1.79 nM)	1.11 (≈ 4.14 nM)
C[C@@H]1CC[C@H]2[C@@H](C)C(=O)O[C@@H]3O[C@@]4(C)CC[C@@H]1[C@]32OO4 [ARTEMISININ]	0.32 (≈ 1.13 nM)	0.86 (≈ 3.05 nM)
CCO[C@H]1O[C@@H]2O[C@@]3(C)CC[C@H]4[C@H](C)CC[C@@H]([C@H]1C)[C@@]24OO3 [ARTEMOTIL]	0.18 (≈ 0.576 nM)	0.34 (≈ 1.09 nM)

From ChEMBL document CHEMBL1128594, “Synthesis and antimalarial activities of 12 beta-allyldeoxoartemisinin and its derivatives” (J Med Chem, 1995)
